Measured values as given in publication PMC5666424, “Marine-Derived 2-Aminoimidazolone Alkaloids. Leucettamine B-Related Polyandrocarpamines Inhibit Mammalian and Protozoan DYRK & CLK Kinases” (Marine Drugs, 2017).

What was measured:
Experiment in all cases: KinomeScan
Format in all cases: binding
Details in all cases: 1 μM
CSNK1A1L = biological target: T1, CSNK1A1L (Homo sapiens, UniProt Q8N752)
T1 construct: purchased DiscoverX (KINOMEscan)

BMPR2 = biological target: T2, BMPR2 (Homo sapiens, UniProt Q13873)
T2 construct: purchased DiscoverX (KINOMEscan)

ACVR2B = biological target: T3, ACVR2B (Homo sapiens, UniProt Q13705)
T3 construct: purchased DiscoverX (KINOMEscan)

DLK = biological target: T4, DLK (Homo sapiens, UniProt Q12852)
T4 construct: purchased DiscoverX (KINOMEscan)

DCAMKL1 = biological target: T5, DCAMKL1 (Homo sapiens, UniProt O15075)
T5 construct: purchased DiscoverX (KINOMEscan)

MAST1 = biological target: T6, MAST1 (Homo sapiens, UniProt Q9Y2H9)
T6 construct: purchased DiscoverX (KINOMEscan)

NEK2 = biological target: T7, NEK2 (Homo sapiens, UniProt P51955)
T7 construct: purchased DiscoverX (KINOMEscan)
T7 sequence (P51955 whole entry): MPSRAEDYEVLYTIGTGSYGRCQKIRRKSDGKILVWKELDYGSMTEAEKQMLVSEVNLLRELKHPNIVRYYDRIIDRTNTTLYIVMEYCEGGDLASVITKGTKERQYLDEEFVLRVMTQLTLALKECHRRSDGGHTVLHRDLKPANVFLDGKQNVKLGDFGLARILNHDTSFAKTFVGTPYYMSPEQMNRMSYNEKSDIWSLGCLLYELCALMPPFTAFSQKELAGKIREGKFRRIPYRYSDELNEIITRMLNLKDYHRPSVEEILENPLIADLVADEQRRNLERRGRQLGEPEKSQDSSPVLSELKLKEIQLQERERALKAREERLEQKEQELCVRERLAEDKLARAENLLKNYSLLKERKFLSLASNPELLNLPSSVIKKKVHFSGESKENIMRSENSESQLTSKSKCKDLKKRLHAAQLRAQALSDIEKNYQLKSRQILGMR

AMPK-alpha2 = biological target: T8, AMPK-alpha2 (Homo sapiens, UniProt P54646)
T8 construct: purchased DiscoverX (KINOMEscan)

CDK9 = biological target: T9, CDK9 (Homo sapiens, UniProt P50750)
T9 construct: purchased DiscoverX (KINOMEscan)

TAOK3 = biological target: T10, TAOK3 (Homo sapiens, UniProt Q9H2K8)
T10 construct: purchased DiscoverX (KINOMEscan)

DAPK3 = biological target: T11, DAPK3 (Homo sapiens, UniProt O43293)
T11 construct: purchased DiscoverX (KINOMEscan)

FLT3(D835Y) = biological target: T12, FLT3(D835Y) (Homo sapiens, UniProt P36888, D835Y)
T12 construct: purchased DiscoverX (KINOMEscan)

IGF1R = biological target: T13, IGF1R (Homo sapiens, UniProt P08069)
T13 construct: purchased DiscoverX (KINOMEscan)
T13 sequence (P08069 31-1367): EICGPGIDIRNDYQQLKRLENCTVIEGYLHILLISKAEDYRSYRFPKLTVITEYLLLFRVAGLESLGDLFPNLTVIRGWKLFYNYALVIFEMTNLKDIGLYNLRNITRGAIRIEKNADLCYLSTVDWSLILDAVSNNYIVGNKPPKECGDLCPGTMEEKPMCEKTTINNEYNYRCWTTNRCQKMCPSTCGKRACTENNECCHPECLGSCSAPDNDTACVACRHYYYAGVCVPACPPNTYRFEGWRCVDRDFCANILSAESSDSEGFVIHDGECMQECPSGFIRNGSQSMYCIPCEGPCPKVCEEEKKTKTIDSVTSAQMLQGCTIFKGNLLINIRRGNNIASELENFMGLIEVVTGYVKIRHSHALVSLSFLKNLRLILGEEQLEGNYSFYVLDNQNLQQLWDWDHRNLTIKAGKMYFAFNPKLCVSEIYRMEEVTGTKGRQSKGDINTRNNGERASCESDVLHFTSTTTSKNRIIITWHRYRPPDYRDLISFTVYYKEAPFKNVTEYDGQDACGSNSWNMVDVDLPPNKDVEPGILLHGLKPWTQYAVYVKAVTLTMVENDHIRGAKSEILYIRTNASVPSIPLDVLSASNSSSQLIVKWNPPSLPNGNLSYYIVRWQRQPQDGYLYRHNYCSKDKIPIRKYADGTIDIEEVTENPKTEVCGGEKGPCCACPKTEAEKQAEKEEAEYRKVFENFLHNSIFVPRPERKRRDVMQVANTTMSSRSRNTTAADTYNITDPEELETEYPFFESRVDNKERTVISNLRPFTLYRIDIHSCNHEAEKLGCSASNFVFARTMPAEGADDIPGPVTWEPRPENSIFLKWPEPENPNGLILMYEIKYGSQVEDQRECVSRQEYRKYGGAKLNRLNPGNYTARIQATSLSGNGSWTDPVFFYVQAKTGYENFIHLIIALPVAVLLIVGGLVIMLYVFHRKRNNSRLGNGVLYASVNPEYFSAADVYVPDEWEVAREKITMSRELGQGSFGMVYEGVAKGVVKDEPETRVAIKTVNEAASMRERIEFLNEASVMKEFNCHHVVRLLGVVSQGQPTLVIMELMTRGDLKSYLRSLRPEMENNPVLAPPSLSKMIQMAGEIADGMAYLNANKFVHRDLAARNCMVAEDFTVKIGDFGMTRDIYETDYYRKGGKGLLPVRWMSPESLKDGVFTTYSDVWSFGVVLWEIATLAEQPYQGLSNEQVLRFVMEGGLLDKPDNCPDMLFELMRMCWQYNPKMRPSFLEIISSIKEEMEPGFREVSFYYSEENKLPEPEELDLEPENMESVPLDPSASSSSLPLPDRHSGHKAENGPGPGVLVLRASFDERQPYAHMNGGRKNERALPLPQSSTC

ABL1-phosphorylated = biological target: T14, ABL1-phosphorylated (Homo sapiens, UniProt P00519)
T14 construct: purchased DiscoverX (KINOMEscan)

FER = biological target: T15, FER (Homo sapiens, UniProt P16591)
T15 construct: purchased DiscoverX (KINOMEscan)

NEK6 = biological target: T16, NEK6 (Homo sapiens, UniProt Q9HC98)
T16 construct: purchased DiscoverX (KINOMEscan)

ADCK3 = biological target: T17, ADCK3 (Homo sapiens, UniProt Q8NI60)
T17 construct: purchased DiscoverX (KINOMEscan)

YANK1 = biological target: T18, YANK1 (Homo sapiens, UniProt Q8WU08)
T18 construct: purchased DiscoverX (KINOMEscan)

NEK3 = biological target: T19, NEK3 (Homo sapiens, UniProt P51956)
T19 construct: purchased DiscoverX (KINOMEscan)

ERN1 = biological target: T20, ERN1 (Homo sapiens, UniProt O75460)
T20 construct: purchased DiscoverX (KINOMEscan)

VEGFR2 = biological target: T21, VEGFR2 (Homo sapiens, UniProt P35968)
T21 construct: purchased DiscoverX (KINOMEscan)

HIPK3 = biological target: T22, HIPK3 (Homo sapiens, UniProt Q9H422)
T22 construct: purchased DiscoverX (KINOMEscan)

TYRO3 = biological target: T23, TYRO3 (Homo sapiens, UniProt Q06418)
T23 construct: purchased DiscoverX (KINOMEscan)

LKB1 = biological target: T24, LKB1 (Homo sapiens, UniProt Q15831)
T24 construct: purchased DiscoverX (KINOMEscan)

DAPK1 = biological target: T25, DAPK1 (Homo sapiens, UniProt P53355)
T25 construct: purchased DiscoverX (KINOMEscan)

ERBB4 = biological target: T26, ERBB4 (Homo sapiens, UniProt Q15303)
T26 construct: purchased DiscoverX (KINOMEscan)
T26 sequence (Q15303 26-1308): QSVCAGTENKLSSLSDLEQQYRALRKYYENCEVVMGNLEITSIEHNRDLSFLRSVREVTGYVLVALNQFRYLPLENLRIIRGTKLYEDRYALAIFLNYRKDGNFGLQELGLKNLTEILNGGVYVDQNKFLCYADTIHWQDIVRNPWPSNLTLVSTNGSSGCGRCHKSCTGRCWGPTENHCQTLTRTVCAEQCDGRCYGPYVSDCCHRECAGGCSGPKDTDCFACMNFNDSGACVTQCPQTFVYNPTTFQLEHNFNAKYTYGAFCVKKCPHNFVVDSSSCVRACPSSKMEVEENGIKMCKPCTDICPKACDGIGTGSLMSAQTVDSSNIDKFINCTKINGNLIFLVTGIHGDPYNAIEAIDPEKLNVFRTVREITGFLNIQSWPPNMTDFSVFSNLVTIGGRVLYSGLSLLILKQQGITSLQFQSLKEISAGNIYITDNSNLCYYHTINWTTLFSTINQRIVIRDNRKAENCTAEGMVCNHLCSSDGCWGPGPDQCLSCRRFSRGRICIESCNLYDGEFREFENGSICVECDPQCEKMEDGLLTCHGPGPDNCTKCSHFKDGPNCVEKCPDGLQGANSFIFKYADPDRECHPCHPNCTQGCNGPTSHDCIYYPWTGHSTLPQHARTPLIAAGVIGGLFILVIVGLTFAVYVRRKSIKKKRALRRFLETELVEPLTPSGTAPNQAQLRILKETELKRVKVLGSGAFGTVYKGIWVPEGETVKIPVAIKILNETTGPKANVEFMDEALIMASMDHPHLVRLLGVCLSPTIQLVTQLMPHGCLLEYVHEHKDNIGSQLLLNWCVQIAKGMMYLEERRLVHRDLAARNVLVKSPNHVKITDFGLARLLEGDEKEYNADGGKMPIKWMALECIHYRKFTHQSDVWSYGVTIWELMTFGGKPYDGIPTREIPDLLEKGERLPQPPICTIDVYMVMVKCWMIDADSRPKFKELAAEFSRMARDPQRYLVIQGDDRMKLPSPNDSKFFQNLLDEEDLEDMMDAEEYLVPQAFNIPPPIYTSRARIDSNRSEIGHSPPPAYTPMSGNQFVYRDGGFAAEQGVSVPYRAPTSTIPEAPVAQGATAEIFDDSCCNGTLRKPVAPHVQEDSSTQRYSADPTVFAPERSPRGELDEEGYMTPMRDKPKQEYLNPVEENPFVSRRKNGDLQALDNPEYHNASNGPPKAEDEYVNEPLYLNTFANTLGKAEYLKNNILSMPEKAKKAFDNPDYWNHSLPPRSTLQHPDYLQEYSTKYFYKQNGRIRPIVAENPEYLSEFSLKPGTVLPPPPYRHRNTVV

[1] = biological target: T27, ABL1(T315I)-phosphorylated (Homo sapiens, UniProt P00519, T315I)
T27 construct: purchased DiscoverX (KINOMEscan)

CDK4-cyclinD1 = biological target: T28, CDK4-cyclinD1 (Homo sapiens, UniProt P11802)
T28 construct: purchased DiscoverX (KINOMEscan)

HIPK4 = biological target: T29, HIPK4 (Homo sapiens, UniProt Q8NE63)
T29 construct: purchased DiscoverX (KINOMEscan)

DMPK2 = biological target: T30, DMPK2 (Homo sapiens, UniProt Q6DT37)
T30 construct: purchased DiscoverX (KINOMEscan)
T30 sequence (Q6DT37 whole entry): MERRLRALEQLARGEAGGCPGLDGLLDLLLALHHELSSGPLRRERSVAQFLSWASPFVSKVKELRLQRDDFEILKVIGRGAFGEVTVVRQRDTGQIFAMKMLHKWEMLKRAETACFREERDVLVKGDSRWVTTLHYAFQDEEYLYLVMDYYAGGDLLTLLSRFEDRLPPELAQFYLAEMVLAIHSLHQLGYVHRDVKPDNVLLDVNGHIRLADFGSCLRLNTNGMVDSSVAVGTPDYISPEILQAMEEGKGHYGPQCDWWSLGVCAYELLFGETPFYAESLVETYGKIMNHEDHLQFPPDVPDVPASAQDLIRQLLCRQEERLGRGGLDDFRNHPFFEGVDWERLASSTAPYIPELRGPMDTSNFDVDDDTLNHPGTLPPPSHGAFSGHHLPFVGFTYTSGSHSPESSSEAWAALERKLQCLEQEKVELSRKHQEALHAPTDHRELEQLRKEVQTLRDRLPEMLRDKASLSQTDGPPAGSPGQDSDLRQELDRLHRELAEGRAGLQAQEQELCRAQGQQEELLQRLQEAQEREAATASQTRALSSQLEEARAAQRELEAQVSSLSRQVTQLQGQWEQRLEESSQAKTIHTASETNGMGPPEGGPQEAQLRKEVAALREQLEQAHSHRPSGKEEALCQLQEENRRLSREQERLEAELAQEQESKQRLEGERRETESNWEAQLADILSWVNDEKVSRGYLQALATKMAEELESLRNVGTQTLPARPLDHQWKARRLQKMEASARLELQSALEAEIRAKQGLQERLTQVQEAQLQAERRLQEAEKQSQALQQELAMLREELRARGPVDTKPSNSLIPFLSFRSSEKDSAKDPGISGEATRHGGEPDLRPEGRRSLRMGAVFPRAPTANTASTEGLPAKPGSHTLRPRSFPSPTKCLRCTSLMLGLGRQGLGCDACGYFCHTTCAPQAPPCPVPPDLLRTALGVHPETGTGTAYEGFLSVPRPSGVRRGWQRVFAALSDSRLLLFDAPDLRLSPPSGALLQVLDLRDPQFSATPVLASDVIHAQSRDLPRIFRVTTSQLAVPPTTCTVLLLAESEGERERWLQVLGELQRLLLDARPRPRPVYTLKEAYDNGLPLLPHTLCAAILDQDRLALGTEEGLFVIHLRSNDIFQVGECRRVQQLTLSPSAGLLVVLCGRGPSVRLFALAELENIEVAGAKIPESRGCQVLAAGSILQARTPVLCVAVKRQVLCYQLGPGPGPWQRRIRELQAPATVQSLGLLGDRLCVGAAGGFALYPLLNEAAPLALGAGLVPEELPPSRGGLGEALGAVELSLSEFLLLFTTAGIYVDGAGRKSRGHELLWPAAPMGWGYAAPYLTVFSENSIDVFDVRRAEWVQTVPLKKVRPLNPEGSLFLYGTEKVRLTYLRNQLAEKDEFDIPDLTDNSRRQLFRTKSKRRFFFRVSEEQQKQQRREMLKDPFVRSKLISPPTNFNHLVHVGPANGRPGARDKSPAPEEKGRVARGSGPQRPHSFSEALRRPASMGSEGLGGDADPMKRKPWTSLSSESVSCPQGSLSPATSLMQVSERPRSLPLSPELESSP

[2] = biological target: T31, ABL1(F317I)-nonphosphorylated (Homo sapiens, UniProt P00519, F317I)
T31 construct: purchased DiscoverX (KINOMEscan)

CAMK1 = biological target: T32, CAMK1 (Homo sapiens, UniProt Q14012)
T32 construct: purchased DiscoverX (KINOMEscan)

[3] = biological target: T33, JAK1(JH2domain-pseudokinase) (Homo sapiens, UniProt P23458)
T33 construct: JAK1(JH2domain-pseudokinase); purchased DiscoverX (KINOMEscan)

TRKB = biological target: T34, TRKB (Homo sapiens, UniProt Q16620)
T34 construct: purchased DiscoverX (KINOMEscan)

NEK1 = biological target: T35, NEK1 (Homo sapiens, UniProt Q96PY6)
T35 construct: purchased DiscoverX (KINOMEscan)

DYRK1B = DYRK1B (Homo sapiens, UniProt Q9Y463)
CAMKK1 = biological target: T36, CAMKK1 (Homo sapiens, UniProt Q8N5S9)
T36 construct: purchased DiscoverX (KINOMEscan)
T36 sequence (Q8N5S9 whole entry): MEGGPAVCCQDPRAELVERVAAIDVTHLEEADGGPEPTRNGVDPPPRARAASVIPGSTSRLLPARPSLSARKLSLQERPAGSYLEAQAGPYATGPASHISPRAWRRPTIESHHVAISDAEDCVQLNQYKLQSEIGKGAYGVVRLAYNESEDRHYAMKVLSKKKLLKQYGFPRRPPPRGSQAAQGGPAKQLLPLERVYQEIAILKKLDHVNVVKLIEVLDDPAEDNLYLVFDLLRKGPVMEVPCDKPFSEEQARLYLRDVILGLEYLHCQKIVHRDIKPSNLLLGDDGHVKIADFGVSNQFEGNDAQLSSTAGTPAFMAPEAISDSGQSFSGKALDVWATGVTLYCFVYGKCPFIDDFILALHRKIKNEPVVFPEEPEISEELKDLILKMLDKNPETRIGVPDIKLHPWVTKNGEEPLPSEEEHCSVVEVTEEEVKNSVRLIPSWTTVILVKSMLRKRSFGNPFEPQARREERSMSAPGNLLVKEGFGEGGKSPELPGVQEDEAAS

Question: What does the source list for `COc1cc(/C=C2\N=C(N)NC2=O)ccc1O` [Polyandrocarpamine A]?
Answer: Score (CSNK1A1L): 100; Score (BMPR2): 95; Score (ACVR2B): 99; Score (DLK): 100; Score (DCAMKL1): 98; Score (MAST1): 100; Score (NEK2): 100; Score (AMPK-alpha2): 87; Score (CDK9): 88; Score (TAOK3): 87; Score (DAPK3): 50; Score (FLT3(D835Y)): 100; Score (IGF1R): 100; Score (ABL1-phosphorylated): 100; Score (FER): 100; Score (NEK6): 100; Score (ADCK3): 100; Score (YANK1): 100; Score (NEK3): 100; Score (ERN1): 100; Score (VEGFR2): 100; Score (HIPK3): 19; Score (TYRO3): 100; Score (LKB1): 100; Score (DAPK1): 79; Score (ERBB4): 99; Score [1]: 85; Score (CDK4-cyclinD1): 96; Score (HIPK4): 85; Score (DMPK2): 99; Score [2]: 92; Score (CAMK1): 100; Score [3]: 92; Score (TRKB): 100; Score (NEK1): 100; Score (DYRK1B): 25; Score (CAMKK1): 100
